Reference: patent US20100197587A1, “USE OF A PEPTIDE AS A THERAPEUTIC AGENT” (priority 2007, published 2010)
No end group written: not given here.

Legend:
[1] = system: HIV-1IIIB; assay: HIV-1 antiviral assay in CEM-SS cells (MTS readout); settings: positive controls
[2] = system: HCMV strain AD169; assay: HCMV plaque formation assay in MRC-5 cells; settings: for inhibition of HCMV plaque formation as compared to the virus control experiment: 10 micrograms per ml, 7-10 days
[3] = system: RAW 264.7 (Mouse leukaemic monocyte macrophage cell line) cells; assay: Phagocytosis assay (Fluorescein-labeled Escherichia coli, flow cytometry); assay type: cell-based; settings: 10 micrograms per ml; RAW 264.7, Fluorescein-labeled E. coli
[4] = system: hepatitis B virus (HBV) ayw strain; assay: HBV assay in HepG2-2.2.15 cells (secreted HBV DNA by TaqMan PCR); assay type: cell-based; settings: 10 micrograms per ml; HepG2-2.2.15, six days, HBV DNA in supernatant
[5] = system: spleen cells; assay: Th1/Th2 cytokine profiling assay (Ovalbumin-restimulated spleen cells); settings: 10 micrograms per ml; Ovalbumin restimulation, 72 hours, supernatant
Description: The Balb/c mice (originated in 1923, it is a popular strain and is used in many different research disciplines. Also classified as an inbred from the production of 20 or more successive brother-sister matings, the Balb/c mouse is albino and small in size) were immunized on Days 1, 15, and 29 with Ovalbumin (Ovalbumin is the main protein found in egg white, commonly used to stimulate an immunological reaction in test animals) in PBS (5 micrograms/injection). On day 50, spleens of the mice were harvested (3 weeks after last boost with Ovalbumin). […] Thereafter, additional Ovalbumin was added to the cells at 10 micrograms/ml for in vitro restimulation of the cells. 72 hours later, cell supernatants were harvested and assayed using the Becton Dickinson Mouse Th1/Th2 Cytokine CBA Kit. This kit can be used to measure Interleukin-2 (IL-2), Interleukin-4 (IL-4), Interleukin-5 (IL-5), Interferon-γ (IFN-γ), and Tumor Necrosis Factor-α (TNF-α) protein levels in a single sample.

Row | Compound | antiviral activity of positive control compounds (HIV-1) [1] | inhibition of HCMV plaque formation as compared to the virus control experiment [2] | inhibition of HBV replication as compared to the virus control infection [4] [%] | IFNγ spleen cells; TH1 response (% of control) [5] | IL-2 spleen cells (% of control) [5] | IL-4 spleen cells; TH2 response (% of control) [5] | IL-5 spleen cells; TH2 response (% of control) [5] | TNF-a spleen cells; TH1 response (% of control) [5] | other results
1 | Cc1cn([C@H]2C[C@H](N=[N+]=[N-])[C@@H](CO)O2)c(=O)[nH]c1=O [AZT] | expected levels of antiviral activity | – | – | – | – | – | – | – | –
2 | Nc1nc(O)c2ncn(COC(CO)CO)c2n1 [Ganciclovir, reference compound] | – | – | – | – | – | – | – | – | antiviral activity of positive control compound (HCMV) ([2]; positive control, HCMV AD169): expected levels of antiviral activity
3 | CC(C)(C)NC(=O)[C@@H]1CN(Cc2cccnc2)CCN1C[C@@H](O)C[C@@H](Cc1ccccc1)C(=O)N[C@H]1c2ccccc2C[C@H]1O [indinavir] | expected levels of antiviral activity | – | – | – | – | – | – | – | –
4 | His-Ala-Asp-Gly-Ser-Phe-Ser-Asp-Glu-Met-Asn-Thr-Ile-Leu-Asp-Asn-Leu-Ala-Ala-Arg-Asp-Phe-Ile-Asn-Trp-Leu-Ile-Gln-Thr-Lys-Ile-Thr-Asp-Arg-OH (HADGSFSDEMNTILDNLAARDFINWLIQTKITDR-OH) [Peptide 1] | – | did not inhibit | 59.7 | 132.7 % of control | 0.0 % of control | 0.0 % of control | 48.2 % of control | 102.2 % of control | increase of the phagocytic activity of murine macrophages [3]: 22.9%
5 | His-Ala-Asp-Gly-Ser-Phe-Ser-Asp-Glu-Met-Asn-Thr-Ile-Leu-Asp-Asn-Leu-Ala-Ala-Arg-Asp-Phe-Ile-Asn-Trp-Leu-Ile-Gln-Thr-Lys-Ile-Thr-Asp-OH [Peptide 2] | – | 18.8% | 59.2 | 132.7 % of control | 183.3 % of control | 104.4 % of control | 108.4 % of control | 143.7 % of control | inhibitory effects on the phagocytic activity of murine macrophages [3]: no inhibitory effects
